The source of these data is patent publication US20220054465A1, “(PYRIDIN-2-YL)AMINE DERIVATIVES AS TGF-BETA R1 (ALK5) INHIBITORS FOR THE TREATMENT OF CANCER” (Nexys Therapeutics, Inc., priority 2018, published 2022).

The subject of this test is HEK-Blue TGFβ cell. Put plainly: HEK-Blue TGFβ cellular reporter gene assay (SEAP readout). It counts as cell-based. Conditions: HEK-Blue TGFβ cells stimulated with TGF-β, 22-23 h incubation, SEAP read at 630 nm. The method, then:
HEK-Blue TGFβ Cellular Reporter Gene Assay:
HEK-Blue TGFβ cell was purchased from Invivogen. Cell suspension of 2.5×10^5 cells/ml was prepared using Test Medium (DMEM containing 0.5% v/v heat-inactivated FBS). TGF-β working solution (6 ng/ml) was obtained through diluting TGF-β stock solution (10 μg/ml) by Test Medium before use. Eight different concentrations of all compounds were obtained by 3× gradient dilution method using TGF-β working solution. Add 100 μl of Test Medium (Vehicle) or test article or TGF-β working solution per well of a flat-bottom 96-well plate. Add 100 μl of HEK-Blue TGF-β cell suspension per well. Incubate the plate at 37° C. in a CO2 incubator for 22-23 h. Add 150 μl of resuspended QUANTI-Blue per well of a new flat-bottom 96-well plate. Add 30 μl of induced HEK-Blue TGF-β cells supernatant. Avoid pipetting at the bottom of wells. Incubate the plate at 37° C. incubator for 30-40 min. Determine secreted embryonic alkaline phosphatase (SEAP) levels using a spectrophotometer at 630 nm.
The inhibition was calculated using the equation: […]

For orientation: IC50 means the concentration at which inhibition is half-maximal. Read a high IC50 as a need for much substance.

As for `CCc1nc(C)c(Oc2ccnc(Nc3cc(C)cc(CC(C)(C)C(=O)O)c3)c2)cc1Cl` [Example 156], inhibition was half-maximal at 0.023 µM (IC50). The molecule `O=C(O)c1cccc(Nc2cc(Oc3cn(C4CC4)nc3C3CCOCC3)ccn2)c1` [Example 111] gave an IC50 of 6.2 µM.

On to `Cc1cc(Oc2ccnc(Nc3cccc(CCc4nnn[nH]4)n3)c2)c(-c2ccccn2)nc1C` [Example 26], for which the IC50 was determined as 0.35 µM. Molecule `Cc1cc(Nc2cc(Oc3cn(C4CC4)nc3C3CCOCC3)ccn2)cc(C(C)(C)c2nn[nH]n2)c1` [Example 196] yielded an IC50 of 0.27 µM. As to `Cc1cc(Oc2ccnc(Nc3cccc(OCC(=O)O)c3)c2)c(-c2ccccn2)nc1C` [Example 76], the IC50 was over 10 µM. `Cc1nc(-c2ccccn2)c(Oc2ccnc(Nc3cccc(CCc4nn[nH]n4)c3)c2)cc1C1CC1` [Example 182] came in with an IC50 of 0.64 µM. In turn, `Cc1cc(Oc2ccnc(Nc3ccc(C(F)(F)F)c(CCc4nn[nH]n4)c3)c2)c(-c2ccccn2)nc1C` [Example 22] registered an IC50 of 0.23 µM. Under `CCc1nc(C)c(Oc2ccnc(Nc3cc(C)cc(CCc4nn[nH]n4)c3)c2)cc1C` [Example 190] stands 0.006 µM; under `Cc1cc(Oc2ccnc(Nc3ccc(Cl)c(CCc4nnn[nH]4)c3)c2)c(-c2ccccn2)nc1C` [Example 20], 0.12 µM; under `COc1ccccc1-c1nc(C)ccc1Oc1ccnc(Nc2cccc(C(C)(C)C(=O)O)c2)c1` [Example 86], 0.24 µM. Under `Cc1cc(Oc2ccnc(Nc3cccc(CCC(=O)O)n3)c2)c(-c2ccccn2)nc1C` [Example 7] stands 0.17 µM; under `CCc1ccc(Oc2ccnc(Nc3cc(C)cc(CCC(=O)O)c3)c2)c(C)n1` [Example 147], 0.025 µM; under `CC(C)(C(=O)O)c1cccc(Nc2cc(Oc3cn(C4CC4)nc3-c3ccccn3)ccn2)c1` [Example 130], over 10 µM. `Cc1ccc(-c2nc(C)ccc2Oc2ccnc(Nc3cccc(C(C)(C)C(=O)O)c3)c2)cc1` [Example 94] registered an IC50 of 0.064 µM. Under `Cc1cc(Oc2ccnc(Nc3cccc(C(C)(C)CC(=O)O)c3)c2)c(-c2ccccn2)nc1C` [Example 109] stands 0.051 µM; under `Cc1ccc(Nc2cc(Oc3cc(C)c(C)nc3-c3ccccn3)ccn2)cc1CCc1nnn[nH]1` [Example 28], 0.05 µM; under `CCc1nc(C)c(Oc2ccnc(Nc3cccc(CC4(C(=O)O)COC4)c3)c2)cc1C` [Example 174, 3-(3-((4-((6-ethyl-2,5-dimethylpyridin-3-yl)oxy)pyridin-2-yl)amino)benzyl)oxetane-3-carboxylic acid], 0.057 µM. For the molecule `CC(C)(C(=O)CO)c1cccc(Nc2cc(Oc3cn(C4CC4)nc3C3CCOCC3)ccn2)c1` [Example 159], the IC50 came to 0.14 µM.

Regarding `CCc1nc(C)c(Oc2ccnc(Nc3cc(C)cc(CC(C)(C)C(=O)O)c3)c2)cc1C` [Example 152], the IC50 turned out to be 0.02 µM.

`CCc1ccc(Oc2ccnc(Nc3cccc(CCc4nn[nH]n4)c3)c2)c(C)n1` [Example 57]: the IC50 was 0.13 µM. For the molecule `Cc1ccc(Oc2ccnc(Nc3ccc(Cl)c(CCC(=O)O)c3)c2)c(C)n1` [Example 41], the IC50 was 0.1 µM.

For `Cc1cc(Oc2ccnc(Nc3cc(Cl)cc(CCc4nn[nH]n4)c3)c2)c(-c2ccccn2)nc1C` [Example 180], the IC50 came out at 0.079 µM. For `CC(C)n1cc(Oc2ccnc(Nc3cccc(C(C)(C)C(=O)O)c3)c2)c(-c2ccccc2)n1` [Example 124], half-maximal inhibition (IC50) required 0.19 µM.

Take `Cc1ccc(Oc2ccnc(Nc3cc(CCc4nn[nH]n4)ccn3)c2)c(C)n1` [Example 48]: the midpoint of inhibition, the IC50, lay at 3.03 µM.

In turn, `Cc1cc(Nc2cc(Oc3cn(C(C)C)nc3C3CCOCC3)ccn2)cc(C(C)(C)C(=O)O)c1` [Example 167] returned an IC50 of 0.62 µM. For the molecule `CCCc1ccc(Oc2ccnc(Nc3cccc(C(C)(C)C(=O)O)c3)c2)c(-c2ccccc2)n1` [Example 106], the IC50 was found to be 0.12 µM. As to `Cc1ccc(Oc2ccnc(Nc3cc(CCC(=O)O)ccc3F)c2)c(C)n1` [Example 39], the IC50 worked out at 0.26 µM.

In turn, `CCc1nc(C)c(Oc2ccnc(Nc3cc(C)cc(C(C)(C)C(=O)O)c3)c2)cc1C` [Example 148] came in with an IC50 of 0.034 µM. Molecule `O=C(O)C(F)(F)c1cccc(Nc2cc(Oc3cn(C4CC4)nc3-c3ccccc3)ccn2)c1` [Example 132, 2-(3-((4-((1-cyclopropyl-3-phenyl-1H-pyrazol-4-yl)oxy)pyridin-2-yl)amino)phenyl)-2,2-difluoroacetic acid] yielded an IC50 of over 10 µM. In the case of `Cc1cc(Oc2ccnc(Nc3cccc(CCC(=O)O)c3F)c2)c(-c2ccccn2)nc1C` [Example 10], the IC50 came to 0.22 µM. Molecule `CCc1ccc(Oc2ccnc(Nc3cc(C)cc(CCc4nn[nH]n4)c3)c2)c(C)n1` [Example 187] showed an IC50 of 0.027 µM.

As for `CCn1cc(Oc2ccnc(Nc3cccc(C(C)(C)C(=O)O)c3)c2)c(-c2ccccc2)n1` [Example 122], it took 0.029 µM to reach half-maximal inhibition (IC50). Molecule `c1ccc(-c2nn(C3CC3)cc2Oc2ccnc(Nc3cccc(Cc4nn[nH]n4)c3)c2)cc1` [Example 198] had an IC50 of 0.11 µM. In turn, `Cc1cc(Oc2ccnc(Nc3ccn(CCc4nn[nH]n4)n3)c2)c(-c2ccccn2)nc1C` [Example 32] yielded an IC50 of 3.71 µM. `Cc1cc(Nc2cc(Oc3cn(C4CC4)nc3C3CCOCC3)ccn2)cc(C(=O)O)c1` [Example 112] gave an IC50 of 1.67 µM. The molecule `Cc1cc(CCc2nn[nH]n2)cc(Nc2cc(Oc3cc(Cl)c(C)nc3C)ccn2)c1` [Example 189] displayed an IC50 of 0.024 µM.

For the molecule `Cc1ccc(Oc2ccnc(Nc3cccc(C(F)(F)C(=O)O)c3)c2)c(-c2ccccc2)n1` [Example 131, 2,2-difluoro-2-(3-((4-((6-methyl-2-phenylpyridin-3-yl)oxy)pyridin-2-yl)amino)phenyl)acetic acid], half-maximal inhibition (IC50) was put at 1.73 µM. On to `O=C(O)CCc1cc(Nc2cc(Oc3cn(C4CC4)nc3C3CCOCC3)ccn2)ccn1` [Example 69], for which the IC50 is over 10 µM. Under `Cc1cc(Nc2cc(Oc3cn(C4CCC4)nc3-c3ccccc3)ccn2)cc(C(C)(C)C(=O)O)c1` [Example 172] stands 0.12 µM; under `Cc1cc(Oc2ccnc(Nc3cccc(C(C)(C)C(=O)O)c3)c2)c(-c2ccccc2)nc1C` [Example 98], 0.051 µM; under `CC(C)(c1cccc(Nc2cc(Oc3cn(C4CC4)nc3C3CCOCC3)ccn2)c1)c1nn[nH]n1` [Example 195], 2.23 µM.

In turn, `Cc1ccc(Oc2ccnc(Nc3cccc(CCc4nn[nH]n4)c3)c2)c(C(F)(F)F)n1` [Example 58] gave an IC50 of 0.15 µM. `Cc1cc(Cc2nn[nH]n2)cc(Nc2cc(Oc3cn(C4CC4)nc3-c3ccccc3)ccn2)c1` [Example 199] came in with an IC50 of 0.06 µM. Under `O=C(O)CCc1cccc(Nc2cc(Oc3cn(C4CC4)nc3-c3ccccc3)ccn2)c1` [Example 171] stands 0.016 µM; under `Cc1cc(Nc2cc(Oc3cc(C)c(C)nc3-c3ccccn3)ccn2)cc(C(C)(C)C(=O)O)c1` [Example 134], 0.078 µM.

`Cc1cccc(-c2nc(C)ccc2Oc2ccnc(Nc3cccc(C(C)(C)C(=O)O)c3)c2)c1` [Example 93] came in with an IC50 of 0.12 µM. `CCc1nc(C)c(Oc2ccnc(Nc3cc(C)cc(CCC(=O)O)c3)c2)cc1C` [Example 150] gave an IC50 of 0.027 µM.

For `Cc1cc(Nc2cc(Oc3ccc(C)nc3-c3ccccc3)ccn2)cc(C(C)(C)C(=O)O)c1` [Example 142], the IC50 is 0.007 µM.
